{
  "source": "paper PMC6267684",
  "about": "“Pharmacokinetic evaluation of the PNC disassembler metarrestin in wild-type and Pdx1-Cre;LSL-Kras^G12D/+;Tp53^R172H/+ (KPC) mice, a genetically engineered model of pancreatic cancer” (Cancer Chemotherapy and Pharmacology, 2018)",
  "key": {"[1]": {"assay": "Steady-state PK in KPC mice fed metarrestin-infused chow", "assay_type": "in vivo", "conditions": "25 mg/kg PO chow MD", "experimental": "Metarrestin [ML-246; Trans-4-(7-benzyl-4-imino-5,6-diphenyl-4,7-dihydro-3H-pyrrolo[2,3-d]pyrimidin-3-yl) cyclohexanol] was manufactured in-house using the previously described 4-step synthesis sequence. Purity (> 98%) was determined by LC-MS/MS and 1H-NMR analysis as previously reported. To enhance bioavailability, the drug was micronized to particles of uniform small size with greater surface area using a technique proprietary to Crititech Inc. (Lawrence, Kansas). In brief, the drug substance was dissolved in organic solvent dichloromethane and precipitated using compressed super critical carbon dioxide as the anti-solvent. The produced material had 90% particles with a diameter less than 1.131 µm with a mean diameter of 0.829 µm (Suppl. Figure 1). […]\nAn ultra-performance liquid chromatography–tandem mass spectrometry (UPLC–MS/MS) method was developed to determine metarrestin concentrations in plasma and tissue samples. […] Data were analyzed using MassLynx V4.1.\nThe pharmacokinetic parameters were calculated using the non-compartmental approach (Models 200 and 201) of the pharmacokinetic software Phoenix WinNonlin, version 6.4 (Certara, St. Louis, MO). The area under the plasma concentration vs time curve (AUC) was calculated using the linear trapezoidal method. […]"}, "[2]": {"assay": "Preliminary toxicity profile, 25 mg/kg PO gavage for 14 days", "conditions": "for ALP (alkaline phosphatase) / ALT (alanine transaminase) / AST (aspartate transaminase): in U/L (unit assumed); for Weight: in g (unit assumed)"}, "[3]": {"conditions": "females, 25 mg/kg, 14 days, in g/dL (unit assumed)"}, "[4]": {"conditions": "females, N=10, 25 mg/kg, number of animals"}, "[5]": {"conditions": "males, N=10, 25 mg/kg, number of animals"}},
  "data": [
    {"smiles": "N=c1c2c(-c3ccccc3)c(-c3ccccc3)n(Cc3ccccc3)c2ncn1[C@H]1CC[C@H](O)CC1", "note": "[metarrestin, Trans-4-(7-benzyl-4-imino-5,6-diphenyl-4,7-dihydro-3H-pyrrolo[2,3-d]pyrimidin-3-yl) cyclohexanol]", "values": [
      {"measurement": "intratumor AUC0–24h", "setting": "[1]", "result": "396,000 h ng/mL"},
      {"measurement": "body weight, hypoactivity, liver function tests compared to vehicle controls", "setting": "[2]; daily 25 mg/kg by oral gavage for 14 days", "result": "not associated with any change in body weight, hypoactivity, or change in liver function tests"},
      {"measurement": "CHOL (cholesterol)", "setting": "[2]; females, 25 mg/kg, 14 days", "result": "123 ± 18.4"},
      {"measurement": "LD (lactate dehydrogenase)", "setting": "[2]; females, 25 mg/kg, 14 days", "result": "495 ± 89.7"},
      {"measurement": "ALP (alkaline phosphatase)", "setting": "[2]; females, 25 mg/kg, 14 days", "result": "136 ± 13.8"},
      {"measurement": "ALT (alanine transaminase)", "setting": "[2]; females, 25 mg/kg, 14 days", "result": "100 ± 47.6"},
      {"measurement": "AST (aspartate transaminase)", "setting": "[2]; females, 25 mg/kg, 14 days", "result": "100 ± 28.3"},
      {"measurement": "GLOB (globulin)", "setting": "[2]; [3]", "result": "2.1 ± 0.13"},
      {"measurement": "TP (total protein)", "setting": "[2]; [3]", "result": "5.2 ± 0.21"},
      {"measurement": "Weight", "setting": "[2]; females, Day 1, 25 mg/kg", "result": "23.1 ± 1.55"},
      {"measurement": "Weight Change", "setting": "[2]; females, Day 1 to 4, 25 mg/kg", "result": "0.0 ± 0.80"},
      {"measurement": "Weight Change", "setting": "[2]; females, Day 1 to 15, 25 mg/kg", "result": "2.7 ± 1.04"},
      {"measurement": "Weight Change", "setting": "[2]; females, Day 4 to 7, 25 mg/kg", "result": "1.2 ±0.67"},
      {"measurement": "Weight", "setting": "[2]; females, Day 7, 25 mg/kg", "result": "24.3 ± 1.32"},
      {"measurement": "Weight", "setting": "[2]; females, Day 15, 25 mg/kg", "result": "25.8 ± 1.70"},
      {"measurement": "Death", "setting": "[2]; [4]", "result": 0},
      {"measurement": "Rough coat", "setting": "[2]; [4]", "result": 0},
      {"measurement": "Scant feces", "setting": "[2]; [4]", "result": 0},
      {"measurement": "CRE (creatinine)", "setting": "[2]; males, 25 mg/kg, 14 days", "result": "0.09 ± 0.015"},
      {"measurement": "P04 (phosphorus)", "setting": "[2]; males, 25 mg/kg, 14 days", "result": "10.2 ± 0.50"},
      {"measurement": "ALP (alkaline phosphatase)", "setting": "[2]; males, 25 mg/kg, 14 days", "result": "84 ± 13.5"},
      {"measurement": "ALT (alanine transaminase)", "setting": "[2]; males, 25 mg/kg, 14 days", "result": "137 ± 67.4"},
      {"measurement": "AST (aspartate transaminase)", "setting": "[2]; males, 25 mg/kg, 14 days", "result": "88 ± 24.3"},
      {"measurement": "K (potassium)", "setting": "[2]; males, 25 mg/kg, 14 days, in mmol/L (unit assumed)", "result": "7.3 ± 0.21"},
      {"measurement": "Weight", "setting": "[2]; males, Day 1, 25 mg/kg", "result": "31.4 ± 1.38"},
      {"measurement": "Weight Change", "setting": "[2]; males, Day 1 to 4, 25 mg/kg", "result": "1.1 ± 0.90"},
      {"measurement": "Weight Change", "setting": "[2]; males, Day 1 to 15, 25 mg/kg", "result": "3.1 ± 1.51"},
      {"measurement": "Weight Change", "setting": "[2]; males, Day 4 to 7, 25 mg/kg", "result": "0.9 ± 0.59"},
      {"measurement": "Weight", "setting": "[2]; males, Day 7, 25 mg/kg", "result": "33.3 ± 2.02"},
      {"measurement": "Weight", "setting": "[2]; males, Day 15, 25 mg/kg", "result": "34.4 ± 2.33"},
      {"measurement": "Cold to touch", "setting": "[2]; [5]", "result": 0},
      {"measurement": "Death", "setting": "[2]; [5]", "result": 0},
      {"measurement": "Hypoactivity", "setting": "[2]; [5]", "result": 0},
      {"measurement": "Rough coat", "setting": "[2]; [5]", "result": 6},
      {"measurement": "Scant feces", "setting": "[2]; [5]", "result": 0},
      {"measurement": "Thin", "setting": "[2]; [5]", "result": 0}
    ]}
  ]
}
